Laboratory results published in patent publication US20230085307A1, “PYRIDAZINONE COMPOUND AND HERBICIDE” (NISSAN CHEMICAL CORPORATION, priority 2019, published 2023).

Tests used:
Italian ryegrass [1] = assay: Test Example 5: herbicidal effect by foliage application, plastic box (Table 20, symbol K); format: in vivo, Italian ryegrass (Lolium multiflorum); details: foliage application, 320 g/ha, evaluated 3 weeks after application
Outline: (§1)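 Sow seeds spot-wise in sterilized diluvial soil; cover with ~1.5 cm soil. Grow 14 days in greenhouse, 25° C. to 30° C. Spray foliage with emulsion diluted to predetermined amount. Rate effect after 3 weeks.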

redroot pigweed [2] = assay: Test Example 5: herbicidal effect by foliage application, plastic box (Table 20, symbol N); format: in vivo, redroot pigweed (Amaranthus retroflexus); details: foliage application, 320 g/ha, evaluated 3 weeks after application
Outline: as §1

windgrass [3] = assay: Test Example 4: herbicidal effect by soil treatment (Table 19, symbol L); format: in vivo, windgrass (Apera spica-venti); details: amount of applied herbicide 320 g/ha
Outline: (§2)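 Soil-surface application: an emulsion agent diluted with water to the predetermined dose is sprayed uniformly over seeds lying under roughly 1.5 cm of sterilized diluvial soil. Boxes stay in a greenhouse at 25° C. to 30° C. Three weeks later, each species is graded on previously defined criteria.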

blackgrass [4] = assay: Test Example 5: herbicidal effect by foliage application, plastic box (Table 20, symbol J); format: in vivo, blackgrass (Alopecurus myosuroides); details: foliage application, 320 g/ha, evaluated 3 weeks after application
Outline: as §1

Chinese sprangletop = assay: Test Example 3: herbicidal effect by foliage application, Wagner pot (Table 18, symbol D); format: in vivo, chinese sprangletop (Leptochloa chinensis); details: amount of applied herbicide 320 g/ha
Outline: (§3)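 Plants were sown in alluvial soil held under 0.1–0.5 cm standing water and grown 14 days in a greenhouse at 25–30 °C. An emulsifiable formulation, water-diluted to the set dose, was then sprayed onto the foliage, and effects were scored three weeks later using previously defined criteria.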

late watergrass = assay: Test Example 1: herbicidal activity, application before weed generation under submerged conditions (Table 16, symbol A); format: in vivo, late watergrass (Echinochloa oryzicola); details: amount of applied herbicide 320 g/ha
Outline: (§4)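 Emulsion formulation, water-diluted to set dose, was put onto the flooded surface (4 cm depth, alluvial soil) the same day weeds were sown and 2.5-leaf rice transplanted. After 3 weeks at 25-30 °C under glass, each species was rated 0 (≤5% kill) to 5 (≥90% kill).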

oval-leafed pondweed = assay: Test Example 1: herbicidal activity, application before weed generation under submerged conditions (Table 16, symbol C); format: in vivo, oval-leafed pondweed (Monochoria vaginalis); details: amount of applied herbicide 320 g/ha
Outline: as §4

blackgrass [5] = assay: Test Example 4: herbicidal effect by soil treatment (Table 19, symbol J); format: in vivo, blackgrass (Alopecurus myosuroides); details: amount of applied herbicide 320 g/ha
Outline: as §2

green foxtail [6] = assay: Test Example 5: herbicidal effect by foliage application, plastic box (Table 20, symbol G); format: in vivo, green foxtail (Setaria viridis); details: foliage application, 320 g/ha, evaluated 3 weeks after application
Outline: as §1

lambsquarters [7] = assay: Test Example 5: herbicidal effect by foliage application, plastic box (Table 20, symbol O); format: in vivo, lambsquarters (Chenopodium album); details: foliage application, 320 g/ha, evaluated 3 weeks after application
Outline: as §1

green foxtail [8] = assay: Test Example 4: herbicidal effect by soil treatment (Table 19, symbol G); format: in vivo, green foxtail (Setaria viridis); details: amount of applied herbicide 320 g/ha
Outline: as §2

velvetleaf [9] = assay: Test Example 4: herbicidal effect by soil treatment (Table 19, symbol M); format: in vivo, velvetleaf (Abutilon theophrasti); details: amount of applied herbicide 320 g/ha
Outline: as §2

persian speedwell [10] = assay: Test Example 5: herbicidal effect by foliage application, plastic box (Table 20, symbol R); format: in vivo, Persian speedwell (Veronica persica); details: foliage application, 320 g/ha, evaluated 3 weeks after application
Outline: as §1

false cleavers [11] = assay: Test Example 5: herbicidal effect by foliage application, plastic box (Table 20, symbol Q); format: in vivo, false cleavers (Galium spurium); details: foliage application, 320 g/ha, evaluated 3 weeks after application
Outline: as §1

barnyard grass [12] = assay: Test Example 3: herbicidal effect by foliage application, Wagner pot (Table 18, symbol H); format: in vivo, barnyard grass (Echinochloa crus-galli); details: amount of applied herbicide 320 g/ha
Outline: as §3

Japanese bulrush = assay: Test Example 1: herbicidal activity, application before weed generation under submerged conditions (Table 16, symbol B); format: in vivo, Japanese bulrush (Schoenoplectus juncoides); details: amount of applied herbicide 320 g/ha
Outline: as §4

southern crabgrass [13] = assay: Test Example 4: herbicidal effect by soil treatment (Table 19, symbol F); format: in vivo, southern crabgrass (Digitaria ciliaris); details: amount of applied herbicide 320 g/ha
Outline: as §2

barnyard grass [14] = assay: Test Example 5: herbicidal effect by foliage application, plastic box (Table 20, symbol H); format: in vivo, barnyard grass (Echinochloa crus-galli); details: foliage application, 320 g/ha, evaluated 3 weeks after application
Outline: as §1

velvetleaf [15] = assay: Test Example 5: herbicidal effect by foliage application, plastic box (Table 20, symbol M); format: in vivo, velvetleaf (Abutilon theophrasti); details: foliage application, 320 g/ha, evaluated 3 weeks after application
Outline: as §1

lambsquarters [16] = assay: Test Example 4: herbicidal effect by soil treatment (Table 19, symbol O); format: in vivo, lambsquarters (Chenopodium album); details: amount of applied herbicide 320 g/ha
Outline: as §2

persian speedwell [17] = assay: Test Example 4: herbicidal effect by soil treatment (Table 19, symbol R); format: in vivo, Persian speedwell (Veronica persica); details: amount of applied herbicide 320 g/ha
Outline: as §2

barnyard grass [18] = assay: Test Example 4: herbicidal effect by soil treatment (Table 19, symbol H); format: in vivo, barnyard grass (Echinochloa crus-galli); details: amount of applied herbicide 320 g/ha
Outline: as §2

Italian ryegrass [19] = assay: Test Example 4: herbicidal effect by soil treatment (Table 19, symbol K); format: in vivo, Italian ryegrass (Lolium multiflorum); details: amount of applied herbicide 320 g/ha
Outline: as §2

rice flat sedge = assay: Test Example 3: herbicidal effect by foliage application, Wagner pot (Table 18, symbol E); format: in vivo, rice flat sedge (Cyperus iria); details: amount of applied herbicide 320 g/ha
Outline: as §3

wild oat [20] = assay: Test Example 4: herbicidal effect by soil treatment (Table 19, symbol I); format: in vivo, wild oat (Avena fatua); details: amount of applied herbicide 320 g/ha
Outline: as §2

redroot pigweed [21] = assay: Test Example 4: herbicidal effect by soil treatment (Table 19, symbol N); format: in vivo, redroot pigweed (Amaranthus retroflexus); details: amount of applied herbicide 320 g/ha
Outline: as §2

windgrass [22] = assay: Test Example 5: herbicidal effect by foliage application, plastic box (Table 20, symbol L); format: in vivo, windgrass (Apera spica-venti); details: foliage application, 320 g/ha, evaluated 3 weeks after application
Outline: as §1

wild oat [23] = assay: Test Example 5: herbicidal effect by foliage application, plastic box (Table 20, symbol I); format: in vivo, wild oat (Avena fatua); details: foliage application, 320 g/ha, evaluated 3 weeks after application
Outline: as §1

chickweed [24] = assay: Test Example 4: herbicidal effect by soil treatment (Table 19, symbol P); format: in vivo, common chickweed (Stellaria media); details: amount of applied herbicide 320 g/ha
Outline: as §2

false cleavers [25] = assay: Test Example 4: herbicidal effect by soil treatment (Table 19, symbol Q); format: in vivo, false cleavers (Galium spurium); details: amount of applied herbicide 320 g/ha
Outline: as §2

chickweed [26] = assay: Test Example 5: herbicidal effect by foliage application, plastic box (Table 20, symbol P); format: in vivo, common chickweed (Stellaria media); details: foliage application, 320 g/ha, evaluated 3 weeks after application
Outline: as §1

southern crabgrass [27] = assay: Test Example 5: herbicidal effect by foliage application, plastic box (Table 20, symbol F); format: in vivo, southern crabgrass (Digitaria ciliaris); details: foliage application, 320 g/ha, evaluated 3 weeks after application
Outline: as §1

COc1ccc2c(-c3c(O)c(C)nn(C)c3=O)c(-c3ccccc3OC)oc2c1 [10-001]
K (Italian ryegrass) herbicidal effect grade (Italian ryegrass [1]): 0 (Herbicidal rate of 5% or less (almost no effect))
N (redroot pigweed) herbicidal effect grade (redroot pigweed [2]): 3 (Herbicidal rate of 40% or more and less than 70%)
L: windgrass, herbicidal effect grade (windgrass [3]): 0 (Herbicidal rate of 5% or less (almost no effect))
J (blackgrass) herbicidal effect grade (blackgrass [4]): 0 (Herbicidal rate of 5% or less (almost no effect))
Herbicidal effect on D (Chinese sprangletop), foliage application (Chinese sprangletop): 0 (Herbicidal rate of 5% or less (almost no effect))
Herbicidal effect, A: late watergrass (late watergrass): 0 (Herbicidal rate of 5% or less (almost no effect))
Herbicidal effect, C: oval-leafed pondweed (oval-leafed pondweed): 3 (Herbicidal rate of 40% or more and less than 70%)
J: blackgrass, herbicidal effect grade (blackgrass [5]): 0 (Herbicidal rate of 5% or less (almost no effect))
G (green foxtail) herbicidal effect grade (green foxtail [6]): 3 (Herbicidal rate of 40% or more and less than 70%)
O (lambsquarters) herbicidal effect grade (lambsquarters [7]): 4 (Herbicidal rate of 70% or more and less than 90%)
G: green foxtail, herbicidal effect grade (green foxtail [8]): 0 (Herbicidal rate of 5% or less (almost no effect))
M: velvetleaf, herbicidal effect grade (velvetleaf [9]): 0 (Herbicidal rate of 5% or less (almost no effect))
R (persian speedwell) herbicidal effect grade (persian speedwell [10]): 5 (Herbicidal rate of 90% or more (almost completely withered))
Q (false cleavers) herbicidal effect grade (false cleavers [11]): 4 (Herbicidal rate of 70% or more and less than 90%)
Herbicidal effect on H (barnyard grass), foliage application (barnyard grass [12]): 3 (Herbicidal rate of 40% or more and less than 70%)
Herbicidal effect, B: Japanese bulrush (Japanese bulrush): 0 (Herbicidal rate of 5% or less (almost no effect))
F: southern crabgrass, herbicidal effect grade (southern crabgrass [13]): 0 (Herbicidal rate of 5% or less (almost no effect))
H (barnyard grass) herbicidal effect grade (barnyard grass [14]): 3 (Herbicidal rate of 40% or more and less than 70%)
M (velvetleaf) herbicidal effect grade (velvetleaf [15]): 3 (Herbicidal rate of 40% or more and less than 70%)
O: lambsquarters, herbicidal effect grade (lambsquarters [16]): 0 (Herbicidal rate of 5% or less (almost no effect))
R: persian speedwell, herbicidal effect grade (persian speedwell [17]): 5 (Herbicidal rate of 90% or more (almost completely withered))
H: barnyard grass, herbicidal effect grade (barnyard grass [18]): 0 (Herbicidal rate of 5% or less (almost no effect))
K: Italian ryegrass, herbicidal effect grade (Italian ryegrass [19]): 0 (Herbicidal rate of 5% or less (almost no effect))
Herbicidal effect on E (rice flat sedge), foliage application (rice flat sedge): 2 (Herbicidal rate of 20% or more and less than 40%)
I: wild oat, herbicidal effect grade (wild oat [20]): 0 (Herbicidal rate of 5% or less (almost no effect))
N: redroot pigweed, herbicidal effect grade (redroot pigweed [21]): 0 (Herbicidal rate of 5% or less (almost no effect))
L (windgrass) herbicidal effect grade (windgrass [22]): 3 (Herbicidal rate of 40% or more and less than 70%)
I (wild oat) herbicidal effect grade (wild oat [23]): 0 (Herbicidal rate of 5% or less (almost no effect))
P: chickweed, herbicidal effect grade (chickweed [24]): 0 (Herbicidal rate of 5% or less (almost no effect))
Q: false cleavers, herbicidal effect grade (false cleavers [25]): 0 (Herbicidal rate of 5% or less (almost no effect))
P (chickweed) herbicidal effect grade (chickweed [26]): 5 (Herbicidal rate of 90% or more (almost completely withered))
F (southern crabgrass) herbicidal effect grade (southern crabgrass [27]): 2 (Herbicidal rate of 20% or more and less than 40%)
